Patent US6828450B2, “Triptycene analogs” (Kansas State University Research Foundation, priority 2000, dated 2004)
Values joined by “and” are separate entries in the source; they are usually repeats but may differ in a detail not shown here. Identical values can stand only once. Like-named read-outs stand apart in the source and are kept apart here.

Assays:
HL-60-RV cells = assay: DNA synthesis in HL-60-RV cells; format: cell-based, human; conditions: for IC50: read-out: IC50, inhibition of DNA synthesis in HL-60-RV cells
HL-60-S cells [1] = assay: DNA cleavage in HL-60-S cells; format: cell-based, human; conditions: 24 h
Protocol: (§1) FIG. 23. Comparison of the concentration-dependent inductions of DNA cleavage by DAU (open symbols in A) and TT2 (closed symbols in B) at 24 h in HL-60-S (circles), HL-60-RV (squares) and HL-60-R8 (triangles) cells containing ^3H-prelabeled DNA in vitro. Results are expressed as [cpm in supernatant/cpm in supernatant+pellet]×100 at 24 h. For untreated controls (14.7±1.7% DNA fragmentation, striped areas), the supernatant (DNA fragments) is 12,815±1,358 cpm and the pellet (intact DNA) is 74,406±9,078 cpm.
(§2) The MDR HL-60-RV and HL-60-R8 cells were developed in Melvin S. Center's laboratory (Kansas State University) and similarly maintained in RPMI 1640 medium in the absence of drugs (Marsh W, et al, Cancer Res 46: 4053-4057, 1986; McGrath T et al, and Center M S: Biochem Biophys Res Commun 145: 1171-1176, 1987; Marsh W and Center M S: Cancer Res 47: 5080-5086, 1987; McGrath T, et al, Biochem Pharmacol 38: 3611-3619, 1989; Marquardt D, et al, Cancer Res 50: 1426-1430, 1990; Marquardt D and Center M S: J Natl Cancer Inst 83: 1089-1109, 1991; Krishnamachary N and Center M S; Cancer Res 53: 3658-3661, 1993). Every 4 weeks, these HL-60-RV and HL-60-R8 sublines were exposed to 41 nM DAU for 48 h to stabilize their MDR phenotype. This concentration of DAU, which is not cytotoxic to MDR HL-60 sublines, was removed from the culture medium at least 48 h before experimentation. […] RFs were determined by dividing the IC50 of the MDR cells by that of the sensitive WT parent cell line.
Drug-induced DNA cleavage was determined by intact chromatin precipitation, using L1210, HL-60-S, HL-60-RV and HL-60-R8 cells which were prelabeled with 1 μCi of ^3H-thymidine for 2 h at 37° C., washed with 3×1 ml of ice-cold PBS, collected by centrifugation, and resuspended in fresh FCS-containing RPMI 1640 medium at a density of about 1×10^6 cells/0.5 ml for L1210 and 0.5×10^6 cells/0.5 ml for HL cells. Except when otherwise specified, such cells containing prelabeled DNA were then exposed for 24 h to TTs and drugs known to induce DNA fragmentation. After centrifugation at 200×g for 10 min to discard the drugs and wash the cells, the intact cell pellets were lysed for 30 min in 0.5 ml of HLB, centrifuged at 12,000×g for 30 min to collect the supernatants, and resuspended in 0.5 ml of HLB. After another similar centrifugation, the radioactivities in the pooled supernatants (detergent-soluble low molecular weight DNA fragments) and the pellet (intact chromatin DNA) were determined by LSC: % DNA fragmentation=[cpm in supernatant/cpm in supernatant+pellet]×100. Before being counted in 6 ml of Bio-Safe NA, the intact pelleted chromatin was incubated for 2 h at 60° C. in the presence of 0.6 ml of NCS tissue solubilizer (Amersham).

HL-60-R8 cells [2] = assay: DNA synthesis in HL-60-R8 cells; format: cell-based, human; conditions: read-out: IC50, inhibition of DNA synthesis in HL-60-R8 cells
HL-60-R8 cells [3] = assay: HL-60-R8 (MDR) cell viability assay (MTS:PMS); format: cell-based, human; conditions: read-out: IC50, decrease of HL-60-R8 cell viability
Source text: as §2

L1210 cells = assay: RNA synthesis (3H-uridine incorporation) in L1210 cells; format: cell-based, murine
Protocol: FIG. 16. Comparison of the concentration-dependent inhibitions of RNA synthesis by the TT analog TT2 (●) and DAU (∘) in L1210 cells in vitro. […] RNA synthesis in vehicle-treated control cells was 47,117±3,204 cpm (100±7%; striped area). The blank value (1,746±155 cpm) for cells incubated and pulse-labeled at 2° C. with 2 μCi of ^3H-uridine has been substracted from the results.
Except when otherwise specified, the cells were incubated at 37° C. for 90 min in the presence or absence of drugs and then pulse-labeled for an additional 30 min with 1 μCi of [methyl-^3H]thymidine (50 Ci/mmol; Amersham Corp., Arlington Heights, Ill.) to estimate the rate of DNA synthesis. […] After drying the filters, the radioactivity bound to the acid-precipitable material was determined by liquid scintillation counting (LSC) in 10 ml of Bio-Safe NA (Researeh Products International Corp., Mount Prospect, Ill.).

HL-60-R8 cells [4] = assay: DNA cleavage in HL-60-R8 cells; format: cell-based, human; conditions: HL-60-R8, 24 h
Protocol: as §1
as §2, with “phenotype.” for “phenotype. This concentration of DAU, which is not cytotoxic to MDR HL-60 sublines, was removed from the culture medium at least 48 h before experimentation.”, “line. […]” for “line.”

HL-60-S cells [5] = assay: DNA synthesis in HL-60-S cells; format: cell-based, human; conditions: for IC50: read-out: IC50, inhibition of DNA synthesis in HL-60-S cells
[6] = biological target: Malaria protease plasmepsin II (Plasmodium falciparum, UniProt P46925); assay: Inhibition of malaria protease plasmepsin II; format: biochemical
Malaria protease plasmepsin II, sequence (P46925 125-453): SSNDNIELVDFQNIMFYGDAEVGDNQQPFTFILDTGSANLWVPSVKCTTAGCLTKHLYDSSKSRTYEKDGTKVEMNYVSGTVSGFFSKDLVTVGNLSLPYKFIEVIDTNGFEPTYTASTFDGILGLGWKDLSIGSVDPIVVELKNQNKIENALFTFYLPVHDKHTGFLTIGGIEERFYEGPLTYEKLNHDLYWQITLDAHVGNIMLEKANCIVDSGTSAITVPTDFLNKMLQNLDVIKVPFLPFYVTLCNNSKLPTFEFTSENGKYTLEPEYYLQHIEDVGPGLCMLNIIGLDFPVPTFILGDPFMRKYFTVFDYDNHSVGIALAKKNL

[7] = HL-60-RV and HL-60-R8 vs HL-60-S

COC1=CC(=O)C2=C(C1=O)C1C3=C(C(=O)C=CC3=O)C2c2ccccc21 (stereo not shown) [TT2, 2-Methoxy-9,10-dihydro-9,10-[1′,2′]benzenoanthracene-1,4,5,8-tetraone]
RFs, DNA synthesis (IC50 of MDR cells / IC50 of WT HL-60-S) (HL-60-RV cells; [7]): 1.2
IC50 (HL-60-RV cells): 2.1 µM
DNA cleavage, % above control level (HL-60-S cells [1]; 4 μM): 37%
DNA cleavage, % above control level (HL-60-S cells [1]; 10 μM): 14%
DNA cleavage, % below control level (HL-60-S cells [1]; 25 μM): 11%
times greater TT2 than DAU concentrations needed for more than 50% of DNA cleavage (HL-60-S cells [1]; HL-60-S): at least 2.5 times
IC50 (HL-60-R8 cells [2]): 2.1 µM
IC50 (HL-60-R8 cells [3]; day 2): 1.6 µM
IC50 (HL-60-R8 cells [3]; day 4): 0.35 µM
IC50 (L1210 cells; 3 h drug + 1 h pulse-labeling, read-out: IC50, inhibition of RNA synthesis in L1210 cells): 6 µM and ~6 µM
reduction of the peak of maximal DNA cleavage relative to HL-60-S cells (HL-60-R8 cells [4]): 35%
times TT2 inhibits DNA synthesis less effectively than DAU (HL-60-S cells [5]; HL-60-S): 9 times
IC50 (HL-60-S cells [5]): 1.8 µM

COC1=C(Br)C(=O)C2=C(C1=O)C1C3=C(C(=O)C=C(N(C)C)C3=O)C2c2ccccc21 (stereo not shown) [TT16, 2-Bromo-3-methoxy-6-(dimethylamino)-9,10-dihydro-9,10-[1′,2′]benzenoanthracene-1,4,5,8-tetraone]
IC50 [6]: 23.6 µM

COc1cccc2c1C(=O)c1c(O)c3c(c(O)c1C2=O)C[C@@](O)(C(C)=O)C[C@@H]3O[C@H]1C[C@H](N)[C@H](O)[C@H](C)O1 [DAU, daunomycin, reference compound]
RFs, DNA synthesis (IC50 of MDR cells / IC50 of WT HL-60-S) (HL-60-RV cells; [7]): 8.1-11.9
times MDR sublines are less sensitive, DNA synthesis (HL-60-RV cells; [7]): 10 times
IC50 (HL-60-RV cells; Homo sapiens): 2.5 µM
DNA cleavage, % above control level (HL-60-S cells [1]; 1.6 μM, control 15% DNA fragmentation): 67%
DNA cleavage, % above control level (HL-60-S cells [1]; 4 μM): 18%
DNA cleavage, % below control level (HL-60-S cells [1]; 10 μM): 11%
DNA cleavage, % below control level (HL-60-S cells [1]; 25 μM): 14%
DNA cleavage, % above control level (submaximal) (HL-60-S cells [1]; 0.04-0.64 μM DAU): 11-58%
IC50 (HL-60-R8 cells [2]; Homo sapiens): 1.7 µM
IC50 (HL-60-R8 cells [3]; Homo sapiens, 48 h): 2.5 µM
IC50 (HL-60-R8 cells [3]; Homo sapiens, 96 h): 0.38 µM
times DAU inhibits RNA synthesis more effectively than TT2 (L1210 cells; L1210): about 7.5 times
reduction of the peak of maximal DNA cleavage relative to HL-60-S cells (HL-60-R8 cells [4]): 60%
IC50 (HL-60-S cells [5]; Homo sapiens): 0.21 µM
